Paper PMC10721329, “Quisinostat is a brain-penetrant radiosensitizer in glioblastoma” (JCI Insight, 2023)
Where “and” joins values, the source holds several entries; their conditions need not be identical. Equal entries are not always repeated. Where two headings read alike, the source gives them in different places.

Columns and labels:
[1] = Total QST levels in plasma and flank tumors (LC-MS/MS); type: in vivo; conditions: athymic nude, mouse, 10 mg/kg
Experimental: QST concentrations in specimens were measured using reverse-phase LC on the AB SCIEX QTRAP6500+ LC-MS/MS system by operating electrospray in the positive ion mode. For liquid chromatographic separation, gradient elution was performed using a Phenomenex Kinetex F5 100 Å column (100 × 2.1 mm, 2.6 μm). The initial composition of the mobile phase was 70% phase A (0.1% formic acid in water) and 30% phase B (0.1% formic acid in 1:1 acetonitrile/methanol) with a 0.35 mL/min flow rate. Gradient elution was achieved as follows: mobile phase (B) was maintained at 30% from 0 to 0.3 minutes, increased to 95% from 0.3 to 0.8 minutes, maintained at 95% from 0.8 to 2.5 minutes, and decreased to 30% from 2.5 to 2.8 minutes. The total run time was 3.5 minutes. The internal standard used in this study was D8-infigratinib. The retention times for QST and D8-infigratinib were 1.6 and 1.8 minutes, respectively. Mass-to-charge ratio transitions were as follows: 395.20 → 144.00 (QST) and 568.08 → 321.00 (D8-infigratinib). LC-MS/MS analysis was performed using an Analyst 1.7 Chromatographic Data System. See Supplemental Methods for detailed PK experiments. […]
treated with 2 Gy of ionizing radiation on MWF for a total 6 Gy (3 doses). Ionizing radiation was administered with the RS2000 series biological research irradiator (Rad Source Technologies).
Treatment of Flank-Implanted Mice with QST and/or Radiation
Implanted flank tumors were allowed to grow until the tumor size reached 100 mm3 volume. Mice were randomized into groups before treatment and underwent treatment on MWF for the entire duration of the experiment until the tumor volumes exceeded 2000 mm3. Treatment groups included vehicle (50% PEG-300), QST alone (10 mg/kg), flank IR treatment with vehicle (2 Gy), and flank IR treatment (2 Gy) with QST (10 mg/kg). For mice receiving IR treatment with or without QST, mice were treated with 2 Gy on MWF for a total 6 Gy during the first week of treatment. QST was administered to mice through intraperitoneal injections 2 hours before flank tumor radiation treatment. Upon completion of the radiation regimen, IR-treated mice subsequently received QST or vehicle alone for the rest of the experiment. Tumor growth and treatment response were monitored by manually measuring the tumor area twice per week starting at 13 days after implantation. Upon reaching the tumor volume threshold (2000 mm3), mice were sacrificed, and plasma and tissue samples were harvested for PD and PK analyses 2 hours after treatment with a final dose of QST (10 mg/kg). […]
Calibration Standards and Quality Control Samples
Stock solutions of standard (1 mM QST) and IS (250 µM D8-infigratinib) were prepared in acetonitrile. Working solutions for calibration curve standards and quality controls (QCs) were prepared by dilutions with a 40% methanol mixture aqueous solution. The IS precipitation solution (10 nM) was prepared from the IS stock solutions by dilution with methanol. Calibration standards and batch qualifying QCs were freshly spiked for every batch. For sample analysis in human and mouse matrices, calibration standards were prepared in bulk by spiking appropriate amounts of working solutions into blank human plasma, used as a surrogate matrix due to the instability of QST in mouse plasma. For sample analysis in neural stem cell media and cell lysate, calibration standards were prepared in bulk by spiking appropriate amounts of working solutions into neural stem cell media. QC samples were prepared in bulk by spiking appropriate amounts of working solutions into blank mouse plasma or cell media. Preparation of calibration standards and QC samples was performed at 4 °C. Final concentrations range of the calibration standards were 1–1000 nM in human plasma or neural stem cell media. Three QC levels (low, medium, and high) were used during all sample analyses. The concentrations of QC samples in various matrices were 3 nM (low QC), 22 nM (medium QC), and 800 nM (high QC). All stock […]

GB126 cells = assay: Ki67 / cleaved caspase-3 immunofluorescence; type: cell-based, human; conditions: QST at IC50, 72 hours, replicates
Experimental: (§1) Cells were grown as adherent cultures on laminin -coated glass coverslips (Thermo Fisher Scientific) in GSC media. Twenty-four hours after plating, the cells were treated with QST or DMSO diluted in GSC media. Seventy-two hours after treatment, cells were fixed with 4% paraformaldehyde for 13 minutes at room temperature. Cells were washed with phosphate-buffered saline (PBS) and subsequently permeabilized and blocked with 5% normal goat serum (Sigma Aldrich) and 0.2% Triton X -100 in PBS (blocking solution) for 30 minutes at room temperature. The cells were incubated with primary antibodies overnight a t 4 °C in blocking solution. Primary antibodies used in this study included rabbit anti -Ki67 (1:1000; Abcam, 15580), rabbit anti-Cleaved Caspase 3 (1:400; Cell Signaling Technologies, 9661), rabbit anti - gamma H2AX (phospho Ser139; 1:1000, Abcam, ab11174), and mouse anti-human Nestin (1:500; Novus Biologicals, 10C2). The following day, the cells were washed with PBS 3 times, incubated with fluorophore-conjugated secondary antibodies at 1: 1000 dilutions (Alexa Fluor […]
(§2) for 1 hour at room temperature, and washed in PBS 3 more times. Cells were mounted onto […]
(§3) SuperFrost Plus microscope slides using Fluoroshield Mounting Medium containing DAPI (Abcam). Images were acquired using a confocal microscope (Leica Microsystems; TCS SP5) operated with Leica Application Suite software. The fraction of Ki67- and Cleaved Caspase 3– positive cells were counted from 5 independent images from each condition. The mean and standard deviation were calculated from 3 biological replicates for all control and QST-treated […]
(§4) Analysis of immunostaining of cultured GSCs was performed on confocal stacks (with a step size of 0.5–1.5 μm) acquired with either a 20× water-immersion objective or a 63× oil-immersion objective on a laser-scanning confocal microscope (Leica Microsystems; TCS SP5) operated with Leica Application Suite software. All images were processed using ImageJ software (National Institutes of Health). […]
(§5) mL of ice cold 70% ethanol, added dropwise while vortexing. Cells were fixed on ice for 30 minutes and washed twice with 1× PBS. Cells were then resuspended in 500 μL of propidium iodide/RNAse staining buffer (BD Biosciences, 550825) for 15 minutes at room temperature before analysis. Data from all the samples were obtained using a Fortessa flow cytometer (BD […]

BT145 cells = assay: Ki67 / cleaved caspase-3 immunofluorescence; type: cell-based, human; conditions: QST at IC50, 72 hours, replicates
Experimental: as §1, §2, §3, §4, §5

Cn1cc(CNCC2CCN(c3ncc(C(=O)NO)cn3)CC2)c2ccccc21 [QST, quisinostat]
concentration at 2 h ([1]; flank tumor, intraperitoneal, Combination (QST+IR) cohort, read-out: [QST] total, flank tumor, Mean): 501 nM | concentration at 2 h ([1]; flank tumor, intraperitoneal, QST monotherapy cohort, read-out: [QST] total, flank tumor, Mean): 479 nM | concentration at 2 h ([1]; flank tumor, ip, QST- and combination-treated mice, 10 mg/kg IP, 2 hours after final dose, read-out: mean total QST concentration in flank tumors): ~433 nM | concentration at 2 h ([1]; plasma, intraperitoneal, Combination (QST+IR) cohort, read-out: [QST] total, plasma, Mean): 276 nM | concentration at 2 h ([1]; plasma, intraperitoneal, QST monotherapy cohort, read-out: [QST] total, plasma, Mean): 250 nM | concentration at 2 h ([1]; plasma, ip, QST- and combination-treated mice, 10 mg/kg IP, 2 hours after final dose, read-out: mean total QST concentration in plasma): ~300 nM | % CC-3 + / DAPI (GB126 cells): 18.5009% and 22.4947% and 8.724% | % Ki67+ / DAPI (GB126 cells): 8.013% and 11.9177% and 10.7184% | % CC-3 + / DAPI (BT145 cells): 11.8845% and 6.461% and 13.5339% | % Ki67+ / DAPI (BT145 cells): 26.1653% and 29.1973% and 26.725%
